Reference: US11141413B2, “Method of treating renal cell carcinoma using N-(4-(6,7-dimethoxyquinolin-4-yloxy)phenyl)-N′-(4-fluorophenyl)cyclopropane-1,1-dicarboxamide, (2S)-hydroxybutanedioate” (Exelixis, Inc., priority 2016, dated 2021)
Values joined by “and” are separate entries in the source; they are usually repeats but may differ in a detail not shown here. Equal entries are not always repeated.

Tested on: advanced renal cell carcinoma (RCC)
Experiment: METEOR (Study 1) randomized phase 3 trial, cabozantinib vs everolimus: PFS, OS, ORR
Format: in vivo, human
Details: for ORR (95% CI), IRC / ORR (95% CI), Investigator assessed / Progressive disease, IRC / Progressive disease, Investigator assessed / Stable disease, IRC / Stable disease, Investigator assessed / Confirmed ORR (95% CI), IRC / Confirmed ORR (95% CI), Investigator assessed / Confirmed responses (95% CI), IRC / Confirmed responses (95% CI), Investigator assessed: RECIST 1.1; for PFS event: all randomized
[1] = Patients With High Tumor Burden
[2] = Pts with Bone and Visceral Metastases
[3] = prior therapy subgroup Anti-PD-1/PD-L1
[4] = prior therapy subgroup Pazopanib Only
[5] = prior therapy subgroup Sunitinib Only

With `CO[C@H]1C[C@@H]2CC[C@@H](C)[C@@](O)(O2)C(=O)C(=O)N2CCCC[C@H]2C(=O)O[C@H]([C@H](C)C[C@@H]2CC[C@@H](OCCO)[C@H](OC)C2)CC(=O)[C@H](C)/C=C(\C)[C@@H](O)[C@@H](OC)C(=O)[C@H](C)C[C@H](C)/C=C/C=C/C=C/1C` [everolimus] the “Kaplan-Meier estimate of % of patients alive” value (6 Months landmark) was 81% (76%, 85%), the “Kaplan-Meier estimate of % of patients alive” value (12 Months landmark) was 63% and 63% (58%, 78%) and the “Kaplan-Meier estimate of % of patients alive” value (18 Months landmark) was 47%. For the same compound, the “Kaplan-Meier estimate of % of patients alive” value (18 Months landmark, listed as Everolimus) was 47% (41%, 52%), the “Kaplan-Meier estimate of % of patients alive” value (24 Months landmark) was 31% (23%, 39%) and the “ORR (95% CI), IRC” value (Asia Pacific) was 2 (0-11) %. The “ORR (95% CI), Investigator assessed” value (Asia Pacific) was 4 (1-15) %, the “Progressive disease, IRC” value (Asia Pacific) was 28% and the “Progressive disease, Investigator assessed” value (Asia Pacific) was 26%. For the same compound, the “Stable disease, IRC” value (Asia Pacific) was 60%, the “Stable disease, Investigator assessed” value (Asia Pacific) was 60% and the “ORR (95% CI), IRC” value (Europe) was 4 (1-8) %. The “ORR (95% CI), Investigator assessed” value (Europe) was 4 (1-8) %, the “Progressive disease, IRC” value (Europe) was 24% and the “Progressive disease, Investigator assessed” value (Europe) was 25%. For the same compound, the “Stable disease, IRC” value (Europe) was 65%, the “Stable disease, Investigator assessed” value (Europe) was 66% and the “Median OS” value (ITT, all 658 randomized, cutoff Dec. 31, 2015) was 16.5 months. For the same compound, the “Median OS” value (ITT, all 658 randomized, cutoff Dec. 31, 2015, listed as Everolimus) was 16.5 (14.7, 18.8) months, the “Objective response rate (confirmed, partial responses only) per IRC” value (ITT, all 658 randomized, cutoff May 22, 2015) was 3% and the “Objective response rate (confirmed, partial responses only) per IRC” value (ITT, all 658 randomized, cutoff May 22, 2015, listed as eve) was 3%. The “ORR (95% CI), IRC” value (North America) was 2 (1-7) %, the “ORR (95% CI), Investigator assessed” value (North America) was 3 (1-8) % and the “Progressive disease, IRC” value (North America) was 30%. The “Progressive disease, Investigator assessed” value (North America) was 29%, the “Stable disease, IRC” value (North America) was 59% and the “Stable disease, Investigator assessed” value (North America) was 62%. For the same compound, the “Confirmed ORR (95% CI), IRC” value [1] was 0%, the “Confirmed ORR (95% CI), Investigator assessed” value [1] was 1 (0-4) % and the “Progressive disease, IRC” value [1] was 26%. For the same compound, the “Progressive disease, Investigator assessed” value [1] was 27%, the “Stable disease, IRC” value [1] was 64% and the “Stable disease, Investigator assessed” value [1] was 62%. The “Confirmed ORR (95% CI), IRC” value (Patients With Low Tumor Burden) was 7 (3-12) %, the “Confirmed ORR (95% CI), Investigator assessed” value (Patients With Low Tumor Burden) was 7 (4-13) % and the “Progressive disease, IRC” value (Patients With Low Tumor Burden) was 28%. The “Progressive disease, Investigator assessed” value (Patients With Low Tumor Burden) was 27%, the “Stable disease, IRC” value (Patients With Low Tumor Burden) was 60% and the “Stable disease, Investigator assessed” value (Patients With Low Tumor Burden) was 64%. The “Confirmed responses (95% CI), IRC” value (Pts with Bone Metastases) was 0%, the “Confirmed responses (95% CI), Investigator assessed” value (Pts with Bone Metastases) was 0% and the “Progressive disease, IRC” value (Pts with Bone Metastases) was 37%. The “Progressive disease, Investigator assessed” value (Pts with Bone Metastases) was 26%, the “Stable disease, IRC” value (Pts with Bone Metastases) was 54% and the “Stable disease, Investigator assessed” value (Pts with Bone Metastases) was 63%. For the same compound, the “Confirmed responses (95% CI), IRC” value [2] was 0%, the “Confirmed responses (95% CI), Investigator assessed” value [2] was 0% and the “Progressive disease, IRC” value [2] was 44%. The “Progressive disease, Investigator assessed” value [2] was 29%, the “Stable disease, IRC” value [2] was 44% and the “Stable disease, Investigator assessed” value [2] was 59%. The “Confirmed responses (95% CI), IRC” value (Pts without Bone Metastases) was 4 (2-7) %, the “Confirmed responses (95% CI), Investigator assessed” value (Pts without Bone Metastases) was 5 (3-9) % and the “Progressive disease, IRC” value (Pts without Bone Metastases) was 24%. For the same compound, the “Progressive disease, Investigator assessed” value (Pts without Bone Metastases) was 26%, the “Stable disease, IRC” value (Pts without Bone Metastases) was 64% and the “Stable disease, Investigator assessed” value (Pts without Bone Metastases) was 63%. The “Objective response rate per investigator” value (all 658 randomized, cutoff May 22, 2015) was 4%, the “Median duration of PFS” value (all 658 randomized, per IRC, cutoff May 22, 2015) was 3.9 months and the “Median duration of PFS” value (all 658 randomized, per IRC, cutoff May 22, 2015, listed as Everolimus) was 3.9 (3.7-5.1) months and 3.9 months. The “Median duration of PFS” value (all 658 randomized, per investigator, cutoff May 22, 2015) was 5.1 (3.9-5.5) months, the PFS event (per IRC, cutoff May 22, 2015) was 214 (66) ^ n (%) and the PFS event (per investigator, cutoff May 22, 2015) was 233 (71) ^ n (%). The “Median PFS” value (first 375 randomized, per independent radiology review committee (IRC)) was 3.8 months, the “Median PFS” value (first 375 randomized, per independent radiology review committee (IRC), listed as Everolimus) was 3.8 (3.7, 5.4) months and the “Median PFS” value (first 375 randomized, per independent radiology review committee (IRC), listed as eve) was 3.8 months. For the same compound, the “Median OS” value (high MET tumor expression) was 15.2 months, the “Median OS” value (high tumor burden) was 12.2 mo and the “Patients with reduction in measurable tumor lesion size” value (in vivo) was 48%. For the same compound, the “Median OS” value (low MET tumor expression) was 18.4 months, the “Median OS” value (low tumor burden) was 19.3 mo and the “Median OS” value (patients enrolled in Canada) was 12.8 mo. The “Median PFS” value (patients enrolled in Canada) was 3.7 mo, the ORR (patients enrolled in Canada) was 0% and the “Median PFS” value (patients with bone and visceral metastases) was 1.9 mo. The “Median PFS” value (patients with bone metastases) was 2.7 mo, the “Best overall response: confirmed complete response” value (per IRC) was 0 n and the “Best overall response: confirmed partial response” value (per IRC) was 11 n. For the same compound, the “Best overall response: confirmed complete response” value (per investigator) was 0 n, the “Confirmed ORR (95% CI), tumor response by IRC” value (shortened to “Confirmed ORR (95% CI) … by IRC”) [3] was 0% and the “Confirmed ORR (95% CI), tumor response by investigator” value [3] was 0%. For the same compound, the “Progressive disease, tumor response by IRC” value (“Progressive disease … by IRC” for short) [3] was 29%, the “Progressive disease, tumor response by investigator” value [3] was 14% and the “Stable disease, tumor response by IRC” value [3] was 64%. For the same compound, the “Stable disease, tumor response by investigator” value (“Stable disease … by investigator” for short) [3] was 86%, the “Confirmed ORR (95% CI) … by IRC” value [4] was 4 (1-10) % and the “Confirmed ORR (95% CI), tumor response by investigator” value [4] was 4 (1-10) %. The “Progressive disease … by IRC” value [4] was 22%, the “Progressive disease, tumor response by investigator” value [4] was 27% and the “Stable disease, tumor response by IRC” value [4] was 66%. For the same compound, the “Stable disease … by investigator” value [4] was 64%, the “Confirmed ORR (95% CI) … by IRC” value [5] was 3 (1-8) % and the “Confirmed ORR (95% CI), tumor response by investigator” value [5] was 4 (1-9) %. The “Progressive disease … by IRC” value [5] was 35%, the “Progressive disease, tumor response by investigator” value [5] was 29% and the “Stable disease, tumor response by IRC” value [5] was 57%. The “Stable disease … by investigator” value [5] was 63% and the Deaths (second interim analysis of OS, of randomized patients) was 55%.
